# Results published in patent publication US9604983B2, “Herbicidal 3-(2-benzyloxyphenyl)-2,4-dihydroxy-1,8-naphthyridine derivatives” (SYNGENTA LIMITED, priority 2013, dated 2017).
# Assays:
# Assay in all cases: Post-emergence efficacy, glasshouse pot test
# Format in all cases: in vivo
# Settings in all cases: post-emergence application at 1000 g/ha; evaluated after 13 days; five point scale
# [1] = tested on: Echinochloa crus-galli (ECHCG)
# Protocol: (§1) B1 Post-emergence Efficacy Seeds of a variety of test species are sown in standard soil in pots:—Solanum nigrum (SOLNI), Amaranthus retoflexus (AMARE), Setaria faberi (SETFA), Alopecurus myosuroides (ALOMY), Echinochloa crus-galli (ECHCG), Ipomoea hederacea (IPOHE). After 8 days cultivation (post-emergence) under controlled conditions in a glasshouse (at 24/16° C., day/night; 14 hours light; 65% humidity), the plants are sprayed with an aqueous spray solution derived from the formulation of the technical active ingredient in acetone/water (50:50) solution containing 0.5% Tween 20 (polyoxyethelyene sorbitan monolaurate, CAS RN 9005-64-5). Compounds are applied at 1000 g/ha. The test plants are then grown in a glasshouse under controlled conditions in a glasshouse (at 24/16° C., day/night; 14 hours light; 65% humidity) and watered twice daily. After 13 days, the test is evaluated for the percentage damage caused to the plant. The biological activities are shown below in Table 13, on a five point scale (5=80-100%; 4=60-79%; 3=40-59%; 2=20-39%; 1=0-19%).
# [2] = tested on: Ipomoea hederacea (IPOHE)
# Protocol: as §1
# Setaria faberi (SETFA) = tested on: Setaria faberi (SETFA)
# Protocol: as §1
# [3] = tested on: Alopecurus myosuroides (ALOMY)
# Protocol: as §1
# Solanum nigrum (SOLNI) = tested on: Solanum nigrum (SOLNI)
# Protocol: as §1
# [4] = tested on: Amaranthus retoflexus (AMARE)
# Protocol: as §1
smiles,measurement,setting,value
O=c1c(-c2c(F)ccc(Cl)c2OCc2ccccc2)c(O)c2nccnc2n1CC(F)F [Compound 8.003],"percentage damage caused to the plant, ECHCG",[1],4 (4=60-79%)
same,"percentage damage caused to the plant, IPOHE",[2],5 (5=80-100%)
same,"percentage damage caused to the plant, SETFA",Setaria faberi (SETFA),5 (5=80-100%)
same,"percentage damage caused to the plant, ALOMY",[3],3 (3=40-59%)
same,"percentage damage caused to the plant, SOLNI",Solanum nigrum (SOLNI),5 (5=80-100%)
same,"percentage damage caused to the plant, AMARE",[4],5 (5=80-100%)
